Laboratory results from PubChem BioAssay AID2060890 (Molecular Pharmacology Branch, DTP, NCI, 2025).

Test system: LG0703-F948-PDC complex spheroid viability
Assay: Anticancer human tumor LG0703-F948-PDC patient-derived lung adenocarcinoma cell line growth inhibition [RAS]
Conditions: for IC50: curve of first compound; for viability, T/C: stronger effect = lower value
Procedure, shortened: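 Tumour cells grown as complex spheroids with HUVEC endothelial cells and mesenchymal stem cells, treated with RAS pathway inhibitor combinations. Each agent spans half-log steps from near clinical Cmax, or 10 microM where Cmax is unknown.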

[1] = second compound 0.0316 µM, first compound 0.0316 µM
[2] = second compound 0.0316 µM, first compound 0.1 µM
[3] = second compound 0.0316 µM, first compound 0.316 µM
[4] = second compound 0.0316 µM, first compound 1 µM
[5] = second compound 0.0316 µM, first compound 3.16 µM
[6] = second compound 0.0316 µM, first compound 10 µM
[7] = second compound 0.1 µM, first compound 0.0316 µM
[8] = second compound 0.1 µM, first compound 0.1 µM
[9] = second compound 0.1 µM, first compound 0.316 µM
[10] = second compound 0.1 µM, first compound 1 µM
[11] = second compound 0.1 µM, first compound 3.16 µM
[12] = second compound 0.1 µM, first compound 10 µM
[13] = second compound 0.316 µM, first compound 0.0316 µM
[14] = second compound 0.316 µM, first compound 0.1 µM
[15] = second compound 0.316 µM, first compound 0.316 µM
[16] = second compound 0.316 µM, first compound 1 µM
[17] = second compound 0.316 µM, first compound 3.16 µM
[18] = second compound 0.316 µM, first compound 10 µM
[19] = second compound 1 µM, first compound 0.0316 µM
[20] = second compound 1 µM, first compound 0.1 µM
[21] = second compound 1 µM, first compound 0.316 µM
[22] = second compound 1 µM, first compound 1 µM
[23] = second compound 1 µM, first compound 3.16 µM
[24] = second compound 1 µM, first compound 10 µM
[25] = second compound 3.16 µM, first compound 0.0316 µM
[26] = second compound 3.16 µM, first compound 0.1 µM
[27] = second compound 3.16 µM, first compound 0.316 µM
[28] = second compound 3.16 µM, first compound 1 µM
[29] = second compound 3.16 µM, first compound 3.16 µM
[30] = second compound 3.16 µM, first compound 10 µM
[31] = second compound 10 µM, first compound 0.0316 µM
[32] = second compound 10 µM, first compound 0.1 µM
[33] = second compound 10 µM, first compound 0.316 µM
[34] = second compound 10 µM, first compound 1 µM
[35] = second compound 10 µM, first compound 3.16 µM
[36] = second compound 10 µM, first compound 10 µM
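Also: spheroids exposed to agents for 7 days.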
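For viability, T/C in this document: 100% = DMSO vehicle wells.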

## C[C@@H](NC(=O)c1ncnc(N)c1Cl)c1ncc(C(=O)Nc2cc(C(F)(F)F)c(Cl)cn2)s1 + C#Cc1c(F)ccc2cc(O)cc(-c3ncc4c(N5CC6CCC(C5)N6)nc(OCC56CCCN5CC(F)C6)nc4c3F)c12
Second compound 0.0316 µM
  IC50: > 10000 nM
Second compound 0.1 µM
  IC50: > 10000 nM
Second compound 0.316 µM
  IC50: > 10000 nM
Second compound 1 µM
  IC50: > 10000 nM
Second compound 3.16 µM
  IC50: > 10000 nM
Second compound 10 µM
  IC50: > 10000 nM
[1]
  viability, T/C: 108%
[2]
  viability, T/C: 92.3%
[3]
  viability, T/C: 101%
[4]
  viability, T/C: 96.7%
[5]
  viability, T/C: 103%
[6]
  viability, T/C: 104%
[7]
  viability, T/C: 87.5%
[8]
  viability, T/C: 87.6%
[9]
  viability, T/C: 98.3%
[10]
  viability, T/C: 103%
[11]
  viability, T/C: 104%
[12]
  viability, T/C: 98.3%
[13]
  viability, T/C: 85.8%
[14]
  viability, T/C: 76.6%
[15]
  viability, T/C: 87.3%
[16]
  viability, T/C: 95.4%
[17]
  viability, T/C: 109%
[18]
  viability, T/C: 99%
[19]
  viability, T/C: 86.7%
[20]
  viability, T/C: 74.1%
[21]
  viability, T/C: 64.3%
[22]
  viability, T/C: 83.5%
[23]
  viability, T/C: 73.5%
[24]
  viability, T/C: 80%
[25]
  viability, T/C: 63.1%
[26]
  viability, T/C: 66.3%
[27]
  viability, T/C: 58.6%
[28]
  viability, T/C: 68%
[29]
  viability, T/C: 65.4%
[30]
  viability, T/C: 66.6%
[31]
  viability, T/C: 56.8%
[32]
  viability, T/C: 60.5%
[33]
  viability, T/C: 56.4%
[34]
  viability, T/C: 56.1%
[35]
  viability, T/C: 70.9%
[36]
  viability, T/C: 39.5%

## Cc1nc(N2CCC3(CC2)COC(C)C3N)c(CO)nc1Sc1ccnc(N)c1Cl (stereo unspecified) + C#Cc1c(F)ccc2cc(O)cc(-c3ncc4c(N5CC6CCC(C5)N6)nc(OCC56CCCN5CC(F)C6)nc4c3F)c12
Second compound 0.0316 µM
  IC50: 370 nM
Second compound 0.1 µM
  IC50: 287 nM
Second compound 0.316 µM
  IC50: 181 nM
Second compound 1 µM
  IC50: 85.8 nM
Second compound 3.16 µM
  IC50: 32.7 nM
Second compound 10 µM
  IC50: < 31.6 nM
[1]
  viability, T/C: 76.2%
[2]
  viability, T/C: 73.7%
[3]
  viability, T/C: 47.9%
[4]
  viability, T/C: 35.5%
[5]
  viability, T/C: 20.1%
[6]
  viability, T/C: 10.7%
[7]
  viability, T/C: 83.4%
[8]
  viability, T/C: 63%
[9]
  viability, T/C: 47.4%
[10]
  viability, T/C: 35.9%
[11]
  viability, T/C: 17.6%
[12]
  viability, T/C: 4.95%
[13]
  viability, T/C: 68.1%
[14]
  viability, T/C: 60.1%
[15]
  viability, T/C: 40.3%
[16]
  viability, T/C: 26.4%
[17]
  viability, T/C: 14.4%
[18]
  viability, T/C: 6.94%
[19]
  viability, T/C: 52.4%
[20]
  viability, T/C: 51.7%
[21]
  viability, T/C: 35.8%
[22]
  viability, T/C: 19.9%
[23]
  viability, T/C: 15.5%
[24]
  viability, T/C: 7.42%
[25]
  viability, T/C: 50.3%
[26]
  viability, T/C: 41.5%
[27]
  viability, T/C: 28.5%
[28]
  viability, T/C: 15%
[29]
  viability, T/C: 9.6%
[30]
  viability, T/C: 5.81%
[31]
  viability, T/C: 28.7%
[32]
  viability, T/C: 29.3%
[33]
  viability, T/C: 20.1%
[34]
  viability, T/C: 10.6%
[35]
  viability, T/C: 6.12%
[36]
  viability, T/C: 2.83%

## CC(Nc1ccc2c(c1)OCCn1cc(N3C(=O)OCC3C(F)F)nc1-2)C(N)=O (stereo unspecified) + C#Cc1c(F)ccc2cc(O)cc(-c3ncc4c(N5CC6CCC(C5)N6)nc(OCC56CCCN5CC(F)C6)nc4c3F)c12
Second compound 0.0316 µM
  IC50: 1610 nM
Second compound 0.1 µM
  IC50: 1520 nM
Second compound 0.316 µM
  IC50: 903 nM
Second compound 1 µM
  IC50: 381 nM
Second compound 3.16 µM
  IC50: 62 nM
Second compound 10 µM
  IC50: < 31.6 nM
[1]
  viability, T/C: 96%
[2]
  viability, T/C: 88.5%
[3]
  viability, T/C: 76.3%
[4]
  viability, T/C: 56.4%
[5]
  viability, T/C: 39.9%
[6]
  viability, T/C: 21.6%
[7]
  viability, T/C: 80.7%
[8]
  viability, T/C: 81%
[9]
  viability, T/C: 66.5%
[10]
  viability, T/C: 56.3%
[11]
  viability, T/C: 39.7%
[12]
  viability, T/C: 19.5%
[13]
  viability, T/C: 78.1%
[14]
  viability, T/C: 71%
[15]
  viability, T/C: 59.9%
[16]
  viability, T/C: 50.8%
[17]
  viability, T/C: 32%
[18]
  viability, T/C: 12.5%
[19]
  viability, T/C: 77.7%
[20]
  viability, T/C: 71.2%
[21]
  viability, T/C: 52.7%
[22]
  viability, T/C: 32.2%
[23]
  viability, T/C: 17.6%
[24]
  viability, T/C: 9.15%
[25]
  viability, T/C: 54.1%
[26]
  viability, T/C: 47.5%
[27]
  viability, T/C: 34%
[28]
  viability, T/C: 18.7%
[29]
  viability, T/C: 12.7%
[30]
  viability, T/C: 4.54%
[31]
  viability, T/C: 48.1%
[32]
  viability, T/C: 31%
[33]
  viability, T/C: 15.2%
[34]
  viability, T/C: 7.38%
[35]
  viability, T/C: 4.96%
[36]
  viability, T/C: 2.4%
